Source: patent US20020155172A1, “Methods and compounds for decreasing cell toxicity or death” (priority 2000, published 2002)

Key:
[1] = tested on: HeLa cells co-transfected with a luciferase construct together with Q79-GFP; assay: Protein synthesis by luciferase activity in Q79 expressing HeLa cells; format: cell-based; conditions: 48 hours after transfection
RIP, FADD, and Daxx = assay: Apoptosis induced by overexpression of adapter proteins; format: cell-based
Method: FIG. 5G is a graph of the effects of Congo red on cell death induced by adapter protein oligomerization (Daxx, RIP, FADD).
HeLa cells expressing Q79 expanded polyglutamine repeats were treated with 100 μM Congo red, or 100 μM ZVAD (a positive control) for one hour prior to the addition of the apoptosis-inducing agent, and cell death was determined 48 hours later. […] Finally we tested whether Congo red can inhibit apoptosis induced by overexpression of caspase-1, -8, or -11.

[2] = tested on: GST-Q19, GST-Q62, and GST-Q81; assay: Chemical absorption assay, polyglutamine repeat length; format: binding; conditions: 10 μg/ml Congo red in PBS; equal protein concentrations
Method: FIG. 6A is a graph of the percent of binding of Congo red to expanded polyglutamine repeats Q81, Q62, and Q19.
To determine if Congo red and its derivatives directly bind to expanded polyglutamine aggregates, we designed a chemical absorption assay. This assay measures the remaining Congo red in the supernatant after incubating the supernatant with GST-tagged polyglutamine beads, and removing the GST-polyglutamine beads by centrifugation. This assay was carried out as follows. Recombinant protein GST-Q19, GST-Q62, and GST-Q81 (containing 19, 62, and 81 polyglutamines, respectively) was purified from E. coli by glutathione beads. After several washes with PBS containing protease inhibitors, the beads were allowed to settle to the bottom of the tube at 24° C. for 10 minutes. The polyglutamine-bound beads were aliquoted and diluted with two volumes of 10 μg/ml of Congo red in PBS. The beads were mixed and centrifuged at 15,000 rpm for 2 minutes and the supernatant was removed and diluted 1:100. The percentage absorbance of the compound remaining in the supernatant after absorption with the GST-polyQ beads was then detected. In addition, Congo red- or PBS-only treated polyglutamine polypeptide bead pellets were washed three times with 100 volumes of PBS and then the protein was separated by 12% polyacrylamide gels and immunoblotted as mentioned above. […]

[3] = tested on: Q79-expressing HeLa cells; assay: Turnover of S35-labeled expanded polyglutamine repeats; format: cell-based
Method: FIG. 8A is a set of scanned autoradiograms showing the effect of Congo red on expanded polyglutamine repeat turn-over, as assessed by relative levels of S^35 labeled polyQ (Q79) protein, with or without Congo red treatment. Q79-HA expressing cells were metabolically labeled with S^35 methionine for one hour. Cells were harvested one and 24 hours after labeling. PolyQ protein was immunoprecipitated with an anti-HA antibody, and the proteins were separated by electrophoresis before blotting.
We next determined whether inhibition and disruption of Q79 oligomers changed its turnover kinetics by measuring pulse-S^35-labeled polyglutamine levels in the presence or absence of Congo red.

HD transgenic mice (R62) = assay: Fasting glucose levels in blood; format: in vivo; conditions: 6 hours of fasting, intraperitoneal delivery
Source text: FIG. 10B is a table showing the effect of intraperitoneal delivery of Congo red or PBS (vehicle) on fasting glucose levels in wild-type (WT) or HD transgenic mice.
In addition, the ability of Congo red to inhibit the formation as well as to disrupt preformed polyglutamine oligomers allowed us to examine the role of polyglutamine aggregates in neuronal dysfunction and degeneration characteristic of polyglutamine expansion diseases. In these studies, we used the animal model of Huntington's disease (R62), which expresses the truncated form of huntingtin with 139 CAG repeats Mangiarini et al. (supra). We took advantage of our finding that in addition to inhibiting polyglutamine oligomerization, Congo red also disrupts pre-formed oligomers, thus allowing assessment of the impact of Congo red on disease progression after formation of polyglutamine aggregates and the onset of symptoms. R62 transgenic mice and CBAxC57B1/6 F1 wild type littermates were obtained from Jackson Laboratories (Bar Harbor, Me.) at the age of five weeks. […]
R62 mice also develop severe diabetes due to the presence of polyglutamine aggregates in the pancreas. […] The levels of glucose in the blood after 6 hours of fasting were measured from the serum using the Accu-Check strip kit (Roche, Co.).

Nc1c(/N=N/c2ccc(-c3ccc(/N=N/c4cc(S(=O)(=O)O)c5ccccc5c4N)cc3)cc2)cc(S(=O)(=O)O)c2ccccc12 [Congo red, diphenyldiazo-bis-alpha-napthylaminesulfonate]
loss of luciferase activity (protein synthesis) [1]: prevented the loss of luciferase activity
apoptosis induced by overexpression of RIP, FADD, or Daxx (RIP, FADD, and Daxx): had no effect on apoptosis induced by overexpression of RIP, FADD, or Daxx
affinity for polyglutamine repeats Q81 or Q62 compared to Q19 [2]: significantly higher affinity for expanded polyglutamine repeats that were 81 or 62 polyglutamines in length
steady state levels of HA-Q79 ([3]; Western blot, compared to negative controls): only slightly reduced steady state levels
level of S35-labeled polyglutamine ([3]; after chase for 24 hours, versus control cells): more than two fold lower
expression (synthesis) of expanded polyglutamine ([3]; one hour after chase): did not prevent the expression of expanded polyglutamine
turnover rate of S35-labeled Q79 ([3]; versus control cells): at least a two fold higher turnover rate
fasting glucose levels in blood (HD transgenic mice (R62)): reduced the fasting glucose levels in blood
